Measured values: patent US20100166933A1, “Frozen Confectionery and Beverage Products” (priority 2008, published 2010)

What was measured:
[1] = Human crossover study, Bond-Lader mood questionnaire: alertness (Example 4); format: in vivo; conditions: theobromine 700 mg, caffeine 120 mg, gelatine capsule; for Alertness score in Bond-Lader test, 1 hour: 1 hour after ingestion; for Alertness score in Bond-Lader test, 2 hours: 2 hours after ingestion; for Alertness score in Bond-Lader test, 3 hours: 3 hours after ingestion; for Alertness score in Bond-Lader test, Time zero: time zero (baseline), 24 healthy volunteers
From the text: (§1) Volunteers consumed one of 4 treatments: theobromine only, caffeine only, theobromine and caffeine combined or placebo. […] Theobromine was pharmaceutical grade, supplied by Fagron, Netherlands. […] The placebo capsules matched in appearance and were filled with Avicel (microcrystalline cellulose). The gelatin capsules (size 1) were supplied by Blockland Medical supplies and meet European Pharmacopoeia (Ph. Eur) standards. […] Twenty-four healthy volunteers took part and arrived at the laboratory having consumed a standard lunch and having abstained from theobromine- and caffeine-containing foods such as chocolate for 12 hours. At the start of each session, participants answered a baseline set of questionnaires, which took approximately 15 minutes to complete. On completion, they were given a 10 minute break in which to consume the capsules. The questionnaire was repeated 1, 2 and 3 hours after ingestion. Blood pressure was measured at 0, 1 and 3 hours after treatment. Participants were allowed to read quietly between test batteries.

[2] = Human crossover study, systolic blood pressure (Example 4); conditions: theobromine 700 mg, caffeine 120 mg; for Change in systolic blood pressure, 1 hour: 1 hour after treatment; for Change in systolic blood pressure, 1 hour / Change in systolic blood pressure, 3 hours / Change in systolic blood pressure, Time zero: gelatine capsule; for Change in systolic blood pressure, 3 hours: 3 hours after treatment
From the text: as §1

| Structure (SMILES) | Alertness score in Bond-Lader test, 1 hour [1] | Alertness score in Bond-Lader test, 2 hours [1] | Alertness score in Bond-Lader test, 3 hours [1] | Alertness score in Bond-Lader test, Time zero [1] | Change in systolic blood pressure, 1 hour [2] | Change in systolic blood pressure, 3 hours [2] | Effect on systolic blood pressure after 1 hour (in words) ([2]; after 1 hour) | Change in systolic blood pressure, Time zero [2] [Hgmm] |
| --- | --- | --- | --- | --- | --- | --- | --- | --- |
| Cn1c(=O)c2c(ncn2C)n(C)c1=O [Caffeine, 1,3,7-trimethylxanthine] | +0.01 | +0.05 | +0.07 | 0 | +10 Hgmm | −3 Hgmm | rise in systolic blood pressure (significantly higher than placebo) | 0 |
| Cn1cnc2c1c(=O)[nH]c(=O)n2C [Theobromine, 3,7-dimethylxanthine] | −0.06 | −0.03 | −0.01 | 0 | +3 Hgmm | +4 Hgmm |  | 0 |
